{"source": "patent US20230183808A1", "about": "“Methods of Detecting and Treating Cancers Characterized by Loss of miR15 and miR16 Expression” (priority 2020, published 2023)", "key": {"miR-15b": {"tested_on": "miR-15b", "test": "miR-15b expression by qRT-PCR after 5-Aza-2′-deoxycytidine treatment", "assay_type": "cell-based, human", "details": "5 µM (MEG-01, THP-1, OCI-AML3) or 2.5 µM (U-937, MV4-11), 4 days; in a few cell lines; vs untreated; FIG. 5F", "protocol": "(§1) FIGS. 5A-5F show genetic and epigenomic screening of AML cell lines. […] TBP was used as a loading control (TATA-binding protein). […] In FIGS. 5C and 5E, at least 3 clones are analyzed for each cell line. The CpG island is pictured and each vertical bar represent a single CpG (depicted by *) or a single non-CpG site. Black (CpG site) and grey (non-CpG site) squares represent methylated CpG and white squares represent unmethylated CpG.\n(§2) Total RNA was isolated from human samples and cell lines using TRIzol (Invitrogen, Carlsbad, CA), following the provided instructions. For qRT-PCR, TaqMan miRNA assays (miR-15a#000389, miR-15b#000390, miR-16#000391, (Thermo Fisher Scientific, Waltham, MA)) were used to detect mature miRNAs. For all RNAs from AML patients, reverse transcription reactions were performed using the TaqMan miRNA Reverse Transcription Kit (Applied Biosystems, Foster City, CA) and a RT primer pool by pooling all miRNA-specific stem-loop primers of interest. […]\n(§3) MEG-01, THP-1 and OCI-AML3 cells were treated with 5 µM 5-Aza-2′-deoxycytidine (5-Aza-dC) (Sigma-Aldrich, St. Louis, MO), whereas U-937 and MV4-11 cells were treated with 2.5 µM 5-Aza-dC. After 4 days of treatments (fresh drug was added every 24 hour), cells were harvested and total RNA was isolated and analyzed for qRT-PCR analysis. […]"}, "miR-15a": {"tested_on": "miR-15a", "test": "miR-15a expression by qRT-PCR after 5-Aza-2′-deoxycytidine treatment", "assay_type": "cell-based, human", "details": "5 µM (MEG-01, THP-1, OCI-AML3) or 2.5 µM (U-937, MV4-11), 4 days; in a few cell lines; vs untreated; FIG. 5D", "protocol": "as §1, §2, §3"}}, "data": [{"smiles": "Nc1ncn([C@H]2C[C@H](O)[C@@H](CO)O2)c(=O)n1", "note": "[5-Aza-dC, 5-Aza-2′-deoxycytidine]", "values": [{"measurement": "expression of silenced miR-15b after treatment", "setting": "miR-15b", "value": "increased expression"}, {"measurement": "expression of silenced miR-15a after treatment", "setting": "miR-15a", "value": "increased expression"}]}]}
